From PubChem BioAssay (NCI)
Values joined by “and” are separate entries in the source; they are usually repeats but may differ in a detail not shown here. Equal entries are not always repeated.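 The compound was tested at five concentrations on cells cultured in 96-well plates, with a 48-hour exposure period. GI50 is the concentration that inhibits growth by half. At the TGI there is no net growth.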

Tests used:
Assay in all cases: NCI anticancer screen, dose series, 48 h
HT29 colon = tested on: HT29 colon
HCT-116 colon = tested on: HCT-116 colon
NCI-H226 lung = tested on: NCI-H226 lung
COLO 205 colon = tested on: COLO 205 colon
HCT-15 colon = tested on: HCT-15 colon
SK-OV-3 ovarian = tested on: SK-OV-3 ovarian
RXF 393 renal = tested on: RXF 393 renal
SK-MEL-2 melanoma = tested on: SK-MEL-2 melanoma
SN12C renal = tested on: SN12C renal
HS 578T breast = tested on: HS 578T breast

| SMILES | TGI (HT29 colon) | TGI (HCT-116 colon) | TGI (NCI-H226 lung) | TGI (COLO 205 colon) | TGI (HCT-15 colon) | TGI (SK-OV-3 ovarian) [µM] | TGI (RXF 393 renal) [µM] | TGI (SK-MEL-2 melanoma) | TGI (SN12C renal) | GI50 (HCT-116 colon) | GI50 (COLO 205 colon) [µM] | GI50 (HCT-15 colon) | GI50 (RXF 393 renal) [µM] | GI50 (SN12C renal) [µM] | GI50 (HT29 colon) | GI50 (NCI-H226 lung) | GI50 (SK-MEL-2 melanoma) | GI50 (HS 578T breast) [µM] | TGI (HS 578T breast) | GI50 (SK-OV-3 ovarian) [µM] |
| --- | --- | --- | --- | --- | --- | --- | --- | --- | --- | --- | --- | --- | --- | --- | --- | --- | --- | --- | --- | --- |
| COc1ccccc1NC(=O)C(=O)C1C(=O)Nc2ccccc2S1=O (stereo unspecified) | > 100 µM | > 100 µM | > 100 µM | > 100 µM | > 100 µM | > 100 | > 100 | > 100 µM | > 100 µM | – | – | – | – | – | – | – | – | – | – | – |
| O=C1/C(=C/c2ccccc2)CN(C(=O)Oc2ccc([N+](=O)[O-])cc2)C/C1=C\c1ccccc1 | 4.36 µM and 4.04 µM | 1.65 µM and 1.08 µM | – | – | 5.63 µM | – | 4.51 | 29.2 µM | 7.62 µM | 0.303 µM | 4.95 | 2.74 µM | 1.59 | 3.45 | – | – | – | – | – | – |
| CCOC(=N)CC(=O)NC(C)c1ccccc1 (stereo unspecified) | > 100 µM | > 100 µM | > 100 µM | > 100 µM | > 100 µM | > 100 | > 100 | > 100 µM | > 100 µM | – | – | – | – | – | – | – | – | – | – | – |
| CCCCCCCCCCCCCCCC(=O)N[C@H]1CCc2cc(OC)c(OC)c(OC)c2-c2ccc(SC)c(=O)cc21 | 0.853 µM and 4.66 µM | 3.67 µM and 3.49 µM | 0.656 µM and 5.65 µM | 0.494 µM and 0.391 µM | 5.01 µM and 4.04 µM | 6.19 | 14.8 | 4.46 µM | 9.08 µM and 10.3 µM | 1.04 µM | – | 1.54 µM | – | 2.84 | 1.81 µM | 2.63 µM | – | – | – | – |
| COC(=O)C1=C(O)C(C(=O)OC)[C@@]2(O)[C@@H](C(=O)OC)C(c3ccc(OC(=O)C(CC(C)C)NC(C)=O)cc3)C[C@@H]1[C@@H]2C(=O)OC (stereo partly specified) | > 100 µM | > 100 µM | > 100 µM | > 100 µM | > 100 µM | – | > 100 | > 100 µM | > 100 µM | 29.3 µM | 46.6 | 31.9 µM | > 100 | 30.2 | 62.2 µM | 43 µM | 81.9 µM | 58.3 | > 100 µM | – |
| COc1cc(C2c3cc4c(cc3[C@@H](Nc3cccc(O)c3)C3COC(=O)[C@H]23)OCO4)cc(OC)c1O (stereo partly specified) | 18.8 µM | 23.3 µM | 0.902 µM and 4.04 µM | 23.1 µM | 46.4 µM | 18 | 9.23 | 15 µM | 6.82 µM | 0.804 µM | – | – | 0.418 | 0.688 | – | 0.423 µM | – | – | – | – |
| O=c1c2cc(F)ccc2sc2c(NCCCN3CCCC3)nc3ccccc3c12 | – | 3.19 µM | 15.4 µM | – | 3.53 µM | 7.79 | 8.67 | 4.77 µM | 4.6 µM | 1.63 µM | – | 1.82 µM | 2.33 | 1.97 | – | 3.37 µM | 2.19 µM | 2.18 | 6.22 µM | 2.35 |
| CCOC(=O)NNC(=O)NC12CC3CC(CC(C3)C1)C2 | > 100 µM | > 100 µM | > 100 µM | > 100 µM | > 100 µM | > 100 | > 100 | > 100 µM | > 100 µM | – | – | – | – | – | – | – | – | – | – | – |
| Cn1cc(-c2nn3cc(-c4cccs4)nc3s2)c2cc(F)ccc21 | 14.8 µM | 26.4 µM | 35.8 µM | – | > 100 µM | 70.9 | 5.73 | 7.29 µM | > 100 µM | 2.04 µM | – | 0.606 µM | 1.59 | 4.71 | 0.477 µM | 4.56 µM | 1.59 µM | 2.34 | 13.4 µM | 3.47 |
| COc1ccc(-n2nc(C)c3c2N(C)C2(C)C[C@@H]4C3(C)[C@@H]3CC4(C2)N(C)c2c(c(C)nn2-c2ccc(OC)cc2)[C@H]3C)cc1 (stereo partly specified) | > 100 µM | > 100 µM | > 100 µM | – | – | 9.54 | 13.3 | 23.3 µM | > 100 µM | 2.09 µM | – | – | 2.92 | 8.06 | 3.39 µM | 5.34 µM | 7.29 µM | 4.27 | 98 µM | 2.53 |
| Cc1cc2c(cc1Cl)SC1=NN(C)C(c3ccccc3O)N1S2(=O)=O (stereo unspecified) | > 100 µM | > 100 µM | > 100 µM | > 100 µM | > 100 µM | > 100 | – | > 100 µM | > 100 µM | 44.1 µM | > 100 | 54 µM | – | 58.7 | > 100 µM | > 100 µM | > 100 µM | > 100 | > 100 µM | > 100 |
| O=C1CC2Sc3ccccc3N=C2N1c1ccc(Cl)cc1Cl (stereo unspecified) | > 100 µM | > 100 µM | > 100 µM | > 100 µM | – | – | > 100 | > 100 µM | > 100 µM | – | – | – | – | – | – | – | – | – | – | – |
| CCCCCCCCC(=O)NCCCNCCCNC(=O)CCCCCCCC | 7.5 µM | 9.54 µM | 35.1 µM | 9.57 µM | 28.2 µM | 29.2 | 21.7 | 9.05 µM | 16.3 µM | – | – | – | – | – | – | – | – | – | – | – |
| Clc1ccccc1C1=NN(c2ccccc2)C2c3cc(Br)ccc3OCC12 (stereo unspecified) | > 100 µM | > 100 µM | – | > 100 µM | – | > 100 | > 100 | > 100 µM | – | – | – | – | – | – | – | – | – | – | – | – |
| Cc1ns/c(=N\C(=S)N(C)C)n1C | > 100 µM | > 100 µM | > 100 µM | – | > 100 µM | > 100 | > 100 | > 100 µM | > 100 µM | – | – | – | – | – | – | – | – | – | – | – |
| Cc1cc(N)c2ccccc2[n+]1CCCCCCCCCC[n+]1c(C)cc(N)c2ccccc21 | 1.51 µM and 5.47 µM and 4.62 µM | – | > 50 µM and 22.7 µM and 5.29 µM | – | > 50 µM and 25.9 µM and 81.9 µM | – | – | 1.93 µM and 9.03 µM and 3.78 µM | > 14 µM and 7.39 µM and 16.7 µM | 0.28 µM and 2 µM | – | 1.25 µM and 3.67 µM | – | 0.159 | 0.223 µM and 1.55 µM | 0.576 µM and 1.11 µM | 0.674 µM and 1.4 µM | 0.303 | > 19.2 µM and 29.6 µM | – |
| N#CC(=C=[N-])[n+]1ccc(Cl)cc1 | 33.8 µM | 31.2 µM | 66.7 µM | 32.9 µM | 28.6 µM | > 100 | 31.5 | – | 28.3 µM | – | – | – | – | – | – | – | – | – | – | – |
| O=C1c2cccc3cccc(c23)C(=O)N1CCCN1CCN(CCCN2C(=O)c3cccc4cccc(c34)C2=O)CC1 | > 100 µM | > 100 µM | > 100 µM | > 100 µM | > 100 µM | > 100 | > 100 | > 100 µM | > 100 µM | – | – | – | – | – | – | – | – | – | – | – |
